Measured values published in patent US20260242419A1, “A CYCLIC PEPTIDE FOR TRAPPING INTERLEUKIN-1 BETA” (Merck Sharp & Dohme LLC, priority 2023, published 2026).
Starred links: 1 amine or outer side, 2 acyl side, 3 side chain; linkers in the order of their positions; H or OH if unused. Non-standard residues stand in square brackets, D forms with d. Residues, ends and D or L forms follow the SMILES beside them. Ala(piperidin-4-yl) = O=C([C@H](CC1CCN([*:3])CC1)N[*:1])[*:2]; Trp(βS-Me,4-F) = C[C@@H](c1c[nH]c2cccc(F)c12)[C@H](N)C(=O)O; Bip(4'-COOH) = N[C@@H](Cc1ccc(-c2ccc(C(=O)O)cc2)cc1)C(=O)O; dPro(4R-Bzl(4-F)) = O=C(O)[C@H]1C[C@@H](Cc2ccc(F)cc2)CN1; Ala(morpholin-4-yl) = N[C@@H](CN1CCOCC1)C(=O)O; Ala(piperazin-1-yl) = N[C@@H](CN1CCNCC1)C(=O)O; Ala(pyrimidin-5-yl) = N[C@@H](Cc1cncnc1)C(=O)O; Phe(4-COOH) = N[C@@H](Cc1ccc(C(=O)O)cc1)C(=O)O; dαMeDab = C[C@](CCN[*:3])(N[*:1])C(=O)[*:2]; Pro(cis-4-F) = O=C(O)[C@@H]1C[C@H](F)CN1; X10 = C[C@@](CCN)(N[*:1])C(=O)[*:2]; cisHyp = O=C(O)[C@@H]1C[C@H](O)CN1; d(αMeD) = C[C@@](N)(CC(=O)O)C(=O)O; 4Pal = N[C@@H](Cc1ccncc1)C(=O)O; αMeK = C[C@](N)(CCCCN)C(=O)O; hSer = N[C@@H](CCO)C(=O)O; Dab = NCC[C@H](N)C(=O)O; Aib = CC(C)(N)C(=O)O; Sar = CNCC(=O)O

Target: T1, IL-1β (Homo sapiens, UniProt P01584)
T1 construct: purchased BioLegend 579404
T1 sequence (P01584 117-269): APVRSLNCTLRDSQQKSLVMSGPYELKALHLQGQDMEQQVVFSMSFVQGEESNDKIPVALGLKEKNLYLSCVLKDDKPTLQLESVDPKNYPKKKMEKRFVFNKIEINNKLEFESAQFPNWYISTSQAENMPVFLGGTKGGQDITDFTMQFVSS
Experiment: IL-6 assay in MRC5 cells: inhibition of IL-1β induced IL-6 secretion (AlphaLISA)
Assay type: cell-based
Conditions: inhibition of IL-1β induced IL-6 secretion in MRC5 cells; read-out: MRC5 IC50
Summary of the method: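 Compound was pre-incubated 1 h at ambient temperature with recombinant human IL-1β at 2λ EC80 before adding human lung fibroblast MRC5 cells (3000/well) in EMEM with 0.025% BSA. After overnight culture at 37 °C, 5% CO2, secreted IL-6 in conditioned medium was measured by AlphaLISA; IC50 from 4-parameter logistic fits.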

| SMILES | IC50 [nM] |
| --- | --- |
| C[C@@H](c1c[nH]c2cccc(F)c12)[C@@H]1NC(=O)[C@@H]2C[C@H](O)CN2C(=O)CNC(=O)[C@H](Cc2ccc(C(=O)O)cc2)NC(=O)[C@H](Cc2ccncc2)NC(=O)[C@H](Cc2ccc(-c3ccc(C(=O)O)cc3)cc2)NC(=O)[C@H]2C[C@@H](Cc3ccc(F)cc3)CN2C(=O)CNC(=O)[C@H](CCN)NC(=O)[C@H](CCC(N)=O)NC(=O)[C@H](Cc2cncnc2)NC(=O)C(C)(C)NC(=O)[C@H](Cc2c[nH]c3ccccc23)NC(=O)[C@H](CO)NC(=O)C(C)(C)NC1=O [Example 127] (cyclo([Bip(4'-COOH)][4Pal][Phe(4-COOH)]G[cisHyp][Trp(βS-Me,4-F)][Aib]SW[Aib][Ala(pyrimidin-5-yl)]Q[Dab]G[dPro(4R-Bzl(4-F))])) | 0.013 |
| C[C@@H](c1c[nH]c2cccc(F)c12)[C@@H]1NC(=O)[C@@H]2C[C@H](F)CN2C(=O)CNC(=O)[C@H](Cc2ccc(C(=O)O)cc2)NC(=O)[C@H](Cc2ccncc2)NC(=O)[C@H](Cc2ccc(-c3ccc(C(=O)O)cc3)cc2)NC(=O)[C@H]2C[C@@H](Cc3ccc(F)cc3)CN2C(=O)CNC(=O)[C@H](CCN)NC(=O)[C@H](CCC(N)=O)NC(=O)[C@H](Cc2cncnc2)NC(=O)C(C)(C)NC(=O)[C@H](Cc2c[nH]c3ccccc23)NC(=O)[C@H](CO)NC(=O)[C@](C)(CCN)NC1=O [Example 129] (cyclo([Bip(4'-COOH)][4Pal][Phe(4-COOH)]G[Pro(cis-4-F)][Trp(βS-Me,4-F)][X10]SW[Aib][Ala(pyrimidin-5-yl)]Q[Dab]G[dPro(4R-Bzl(4-F))])) | 0.019 |
| C[C@@H](c1c[nH]c2cccc(F)c12)[C@@H]1NC(=O)[C@@H]2C[C@H](F)CN2C(=O)CNC(=O)[C@H](Cc2ccc(C(=O)O)cc2)NC(=O)[C@H](Cc2ccncc2)NC(=O)[C@H](Cc2ccc(-c3ccc(C(=O)O)cc3)cc2)NC(=O)[C@H]2C[C@@H](Cc3ccc(F)cc3)CN2C(=O)CNC(=O)[C@H](CCN)NC(=O)[C@H](CCC(N)=O)NC(=O)[C@H](Cc2cncnc2)NC(=O)[C@](C)(CCN)NC(=O)[C@H](Cc2c[nH]c3ccccc23)NC(=O)[C@H](CO)NC(=O)C(C)(C)NC1=O [Example 130] (cyclo([Bip(4'-COOH)][4Pal][Phe(4-COOH)]G[Pro(cis-4-F)][Trp(βS-Me,4-F)][Aib]SW[X10][Ala(pyrimidin-5-yl)]Q[Dab]G[dPro(4R-Bzl(4-F))])) | 0.039 |
| C[C@@H](c1c[nH]c2cccc(F)c12)[C@@H]1NC(=O)[C@@H]2C[C@H](F)CN2C(=O)CNC(=O)[C@H](Cc2ccc(C(=O)O)cc2)NC(=O)[C@H](Cc2ccncc2)NC(=O)[C@H](Cc2ccc(-c3ccc(C(=O)O)cc3)cc2)NC(=O)[C@H]2C[C@@H](Cc3ccc(F)cc3)CN2C(=O)CNC(=O)[C@H](CCN)NC(=O)[C@H](CCC(N)=O)NC(=O)[C@H](Cc2cncnc2)NC(=O)C(C)(C)NC(=O)[C@H](Cc2c[nH]c3ccccc23)NC(=O)[C@H](CO)NC(=O)[C@@](C)(CCN)NC1=O [Example 131] (cyclo([Bip(4'-COOH)][4Pal][Phe(4-COOH)]G[Pro(cis-4-F)][Trp(βS-Me,4-F)][dαMeDab]SW[Aib][Ala(pyrimidin-5-yl)]Q[Dab]G[dPro(4R-Bzl(4-F))])) | 0.019 |
| C[C@@H](c1c[nH]c2cccc(F)c12)[C@@H]1NC(=O)[C@@H]2C[C@H](F)CN2C(=O)CNC(=O)[C@H](Cc2ccc(C(=O)O)cc2)NC(=O)[C@H](Cc2ccncc2)NC(=O)[C@H](Cc2ccc(-c3ccc(C(=O)O)cc3)cc2)NC(=O)[C@H]2C[C@@H](Cc3ccc(F)cc3)CN2C(=O)CN(C)C(=O)[C@H](CCN)NC(=O)[C@H](CCC(N)=O)NC(=O)[C@H](Cc2cncnc2)NC(=O)[C@](C)(CCCCN)NC(=O)[C@H](Cc2c[nH]c3ccccc23)NC(=O)[C@H](CCC(=O)O)NC(=O)C(C)(C)NC1=O [Example 132] (cyclo([Bip(4'-COOH)][4Pal][Phe(4-COOH)]G[Pro(cis-4-F)][Trp(βS-Me,4-F)][Aib]EW[αMeK][Ala(pyrimidin-5-yl)]Q[Dab][Sar][dPro(4R-Bzl(4-F))])) | 0.015 |
| C[C@@H](c1c[nH]c2cccc(F)c12)[C@@H]1NC(=O)[C@@H]2C[C@H](F)CN2C(=O)CNC(=O)[C@H](Cc2ccc(C(=O)O)cc2)NC(=O)[C@H](Cc2ccncc2)NC(=O)[C@H](Cc2ccc(-c3ccc(C(=O)O)cc3)cc2)NC(=O)[C@H]2C[C@@H](Cc3ccc(F)cc3)CN2C(=O)CNC(=O)[C@H](CCN)NC(=O)[C@H](CCC(N)=O)NC(=O)[C@H](Cc2cncnc2)NC(=O)[C@](C)(CCCCN)NC(=O)[C@H](Cc2c[nH]c3ccccc23)NC(=O)[C@H](CCO)NC(=O)C(C)(C)NC1=O [Example 133] (cyclo([Bip(4'-COOH)][4Pal][Phe(4-COOH)]G[Pro(cis-4-F)][Trp(βS-Me,4-F)][Aib][hSer]W[αMeK][Ala(pyrimidin-5-yl)]Q[Dab]G[dPro(4R-Bzl(4-F))])) | 0.021 |
| C[C@@H]1NC(=O)C(C)(C)NC(=O)[C@H]([C@@H](C)c2c[nH]c3cccc(F)c23)NC(=O)[C@@H]2C[C@H](F)CN2C(=O)CNC(=O)[C@H](Cc2ccc(C(=O)O)cc2)NC(=O)[C@H](Cc2ccncc2)NC(=O)[C@H](Cc2ccc(-c3ccc(C(=O)O)cc3)cc2)NC(=O)[C@H]2C[C@@H](Cc3ccc(F)cc3)CN2C(=O)CNC(=O)[C@H](CCN)NC(=O)[C@H](CCC(N)=O)NC(=O)[C@H](Cc2cncnc2)NC(=O)[C@](C)(CCCCN)NC(=O)[C@H](Cc2c[nH]c3ccccc23)NC1=O [Example 134] (cyclo([Bip(4'-COOH)][4Pal][Phe(4-COOH)]G[Pro(cis-4-F)][Trp(βS-Me,4-F)][Aib]AW[αMeK][Ala(pyrimidin-5-yl)]Q[Dab]G[dPro(4R-Bzl(4-F))])) | 0.021 |
| CC(C)[C@@H]1NC(=O)C(C)(C)NC(=O)[C@H]([C@@H](C)c2c[nH]c3cccc(F)c23)NC(=O)[C@@H]2C[C@H](F)CN2C(=O)CNC(=O)[C@H](Cc2ccc(C(=O)O)cc2)NC(=O)[C@H](Cc2ccncc2)NC(=O)[C@H](Cc2ccc(-c3ccc(C(=O)O)cc3)cc2)NC(=O)[C@H]2C[C@@H](Cc3ccc(F)cc3)CN2C(=O)CNC(=O)[C@H](CCN)NC(=O)[C@H](CCC(N)=O)NC(=O)[C@H](Cc2cncnc2)NC(=O)[C@](C)(CCCCN)NC(=O)[C@H](Cc2c[nH]c3ccccc23)NC1=O [Example 135] (cyclo([Bip(4'-COOH)][4Pal][Phe(4-COOH)]G[Pro(cis-4-F)][Trp(βS-Me,4-F)][Aib]VW[αMeK][Ala(pyrimidin-5-yl)]Q[Dab]G[dPro(4R-Bzl(4-F))])) | 0.035 |

Further lines, results first:

| IC50 [nM] | SMILES |
| --- | --- |
| 0.014 | C[C@@H](c1c[nH]c2cccc(F)c12)[C@@H]1NC(=O)[C@@H]2C[C@H](F)CN2C(=O)CNC(=O)[C@H](Cc2ccc(C(=O)O)cc2)NC(=O)[C@H](Cc2ccncc2)NC(=O)[C@H](Cc2ccc(-c3ccc(C(=O)O)cc3)cc2)NC(=O)[C@H]2C[C@@H](Cc3ccc(F)cc3)CN2C(=O)CNC(=O)[C@H](CCN)NC(=O)[C@H](CCC(N)=O)NC(=O)[C@H](CN2CCNCC2)NC(=O)C(C)(C)NC(=O)[C@H](Cc2c[nH]c3ccccc23)NC(=O)[C@H](CCC(=O)O)NC(=O)C(C)(C)NC1=O [Example 120] (cyclo([Bip(4'-COOH)][4Pal][Phe(4-COOH)]G[Pro(cis-4-F)][Trp(βS-Me,4-F)][Aib]EW[Aib][Ala(piperazin-1-yl)]Q[Dab]G[dPro(4R-Bzl(4-F))])) |
| 0.029 | C[C@@H](c1c[nH]c2cccc(F)c12)[C@@H]1NC(=O)[C@@H]2C[C@H](F)CN2C(=O)CNC(=O)[C@H](Cc2ccc(C(=O)O)cc2)NC(=O)[C@H](Cc2ccncc2)NC(=O)[C@H](Cc2ccc(-c3ccc(C(=O)O)cc3)cc2)NC(=O)[C@H]2C[C@@H](Cc3ccc(F)cc3)CN2C(=O)CNC(=O)[C@H](CO)NC(=O)[C@H](CCC(N)=O)NC(=O)[C@H](CC2CCNCC2)NC(=O)C(C)(C)NC(=O)[C@H](Cc2c[nH]c3ccccc23)NC(=O)[C@H](CCC(=O)O)NC(=O)C(C)(C)NC1=O [Example 121] (cyclo([Bip(4'-COOH)][4Pal][Phe(4-COOH)]G[Pro(cis-4-F)][Trp(βS-Me,4-F)][Aib]EW[Aib][Ala(piperidin-4-yl)]QSG[dPro(4R-Bzl(4-F))])) |
| 0.019 | C[C@@H](c1c[nH]c2cccc(F)c12)[C@@H]1NC(=O)[C@@H]2C[C@H](F)CN2C(=O)CNC(=O)[C@H](Cc2ccc(C(=O)O)cc2)NC(=O)[C@H](Cc2ccncc2)NC(=O)[C@H](Cc2ccc(-c3ccc(C(=O)O)cc3)cc2)NC(=O)[C@H]2C[C@@H](Cc3ccc(F)cc3)CN2C(=O)CNC(=O)[C@H](CO)NC(=O)[C@H](CCC(N)=O)NC(=O)[C@H](CN2CCNCC2)NC(=O)C(C)(C)NC(=O)[C@H](Cc2c[nH]c3ccccc23)NC(=O)[C@H](CCC(=O)O)NC(=O)C(C)(C)NC1=O [Example 122] (cyclo([Bip(4'-COOH)][4Pal][Phe(4-COOH)]G[Pro(cis-4-F)][Trp(βS-Me,4-F)][Aib]EW[Aib][Ala(piperazin-1-yl)]QSG[dPro(4R-Bzl(4-F))])) |
| 0.041 | C[C@@H](c1c[nH]c2cccc(F)c12)[C@@H]1NC(=O)[C@@H]2C[C@H](F)CN2C(=O)CNC(=O)[C@H](Cc2ccc(C(=O)O)cc2)NC(=O)[C@H](Cc2ccncc2)NC(=O)[C@H](Cc2ccc(-c3ccc(C(=O)O)cc3)cc2)NC(=O)[C@H]2C[C@@H](Cc3ccc(F)cc3)CN2C(=O)CNC(=O)[C@H](CO)NC(=O)[C@H](CCC(N)=O)NC(=O)[C@H](CN2CCOCC2)NC(=O)C(C)(C)NC(=O)[C@H](Cc2c[nH]c3ccccc23)NC(=O)[C@H](CCC(=O)O)NC(=O)C(C)(C)NC1=O [Example 125] (cyclo([4Pal][Phe(4-COOH)]G[Pro(cis-4-F)][Trp(βS-Me,4-F)][Aib]EW[Aib][Ala(morpholin-4-yl)]QSG[dPro(4R-Bzl(4-F))][Bip(4'-COOH)])) |
| 0.009 | C[C@@H](c1c[nH]c2cccc(F)c12)[C@@H]1NC(=O)[C@@H]2C[C@H](F)CN2C(=O)CNC(=O)[C@H](Cc2ccc(C(=O)O)cc2)NC(=O)[C@H](Cc2ccncc2)NC(=O)[C@H](Cc2ccc(-c3ccc(C(=O)O)cc3)cc2)NC(=O)[C@H]2C[C@@H](Cc3ccc(F)cc3)CN2C(=O)CNC(=O)[C@H](CCN)NC(=O)[C@H](CCC(N)=O)NC(=O)[C@H](Cc2cncnc2)NC(=O)[C@@](C)(CC(=O)O)NC(=O)[C@H](Cc2c[nH]c3ccccc23)NC(=O)[C@H](CO)NC(=O)C(C)(C)NC1=O [Example 128] (cyclo([Bip(4'-COOH)][4Pal][Phe(4-COOH)]G[Pro(cis-4-F)][Trp(βS-Me,4-F)][Aib]SW[d(αMeD)][Ala(pyrimidin-5-yl)]Q[Dab]G[dPro(4R-Bzl(4-F))])) |
